Key:
[1] = mn = molality of the nth substance listed, in mol/kg; conditions: 350 kPa, Liquid
[2] = molar heat capacity at constant pressure; mn = molality of the nth substance listed, in mol/kg; conditions: 350 kPa, Liquid

N[C@@H](CC(=O)O)C(=O)O [L-aminosuccinic acid] + O
Conditions | mass density, m1 = 0.002 [kg/m3] | mass density, m1 = 0.004 [kg/m3] | mass density, m1 = 0.00601 [kg/m3] | mass density, m1 = 0.00801 [kg/m3] | mass density, m1 = 0.01 [kg/m3] | molar heat capacity at constant pressure, m1 = 0.002 [J/K/mol] | molar heat capacity at constant pressure, m1 = 0.004 [J/K/mol] | molar heat capacity at constant pressure, m1 = 0.00601 [J/K/mol] | molar heat capacity at constant pressure, m1 = 0.00801 [J/K/mol] | molar heat capacity at constant pressure, m1 = 0.01 [J/K/mol]
[1], 278.15 K | 1000.34 | 1000.29 | 1000.42 | 1000.62 | 1000.79 | – | – | – | – | –
[1], 283.15 K | 1000.09 | 1000.05 | 1000.2 | 1000.36 | 1000.48 | – | – | – | – | –
[1], 288.15 K | 999.47 | 999.41 | 999.59 | 999.76 | 999.84 | – | – | – | – | –
[1], 298.15 K | 997.39 | 997.34 | 997.51 | 997.69 | 997.73 | – | – | – | – | –
[1], 308.15 K | 994.35 | 994.31 | 994.5 | 994.64 | 994.7 | – | – | – | – | –
[1], 318.15 K | 990.53 | 990.51 | 990.66 | 990.76 | 990.87 | – | – | – | – | –
[1], 328.15 K | 985.99 | 986.02 | 986.15 | 986.25 | 986.33 | – | – | – | – | –
[1], 338.15 K | 980.85 | 980.89 | 981.01 | 981.13 | 981.18 | – | – | – | – | –
[1], 348.15 K | 975.14 | 975.19 | 975.26 | 975.41 | 975.51 | – | – | – | – | –
[1], 358.15 K | 968.93 | 968.98 | 969.03 | 969.18 | 969.3 | – | – | – | – | –
[1], 368.15 K | 962.17 | 962.28 | 962.3 | 962.49 | 962.59 | – | – | – | – | –
[2], 278.15 K | – | – | – | – | – | 75.71 | 75.71 | 75.71 | 75.71 | 75.71
[2], 283.15 K | – | – | – | – | – | 75.54 | 75.54 | 75.54 | 75.54 | 75.54
[2], 288.15 K | – | – | – | – | – | 75.42 | 75.42 | 75.43 | 75.43 | 75.42
[2], 293.15 K | – | – | – | – | – | 75.34 | 75.34 | 75.35 | 75.35 | 75.35
[2], 298.15 K | – | – | – | – | – | 75.29 | 75.29 | 75.3 | 75.3 | 75.3
[2], 303.15 K | – | – | – | – | – | 75.26 | 75.26 | 75.27 | 75.27 | 75.27
[2], 308.15 K | – | – | – | – | – | 75.25 | 75.25 | 75.25 | 75.26 | 75.26
[2], 313.15 K | – | – | – | – | – | 75.25 | 75.25 | 75.25 | 75.26 | 75.26
[2], 318.15 K | – | – | – | – | – | 75.26 | 75.26 | 75.27 | 75.27 | 75.27
[2], 323.15 K | – | – | – | – | – | 75.28 | 75.28 | 75.29 | 75.29 | 75.29
[2], 328.15 K | – | – | – | – | – | 75.31 | 75.32 | 75.32 | 75.33 | 75.33
[2], 333.15 K | – | – | – | – | – | 75.35 | 75.36 | 75.36 | 75.37 | 75.37
[2], 338.15 K | – | – | – | – | – | 75.4 | 75.41 | 75.41 | 75.41 | 75.42
[2], 343.15 K | – | – | – | – | – | 75.46 | 75.47 | 75.47 | 75.47 | 75.48
[2], 348.15 K | – | – | – | – | – | 75.52 | 75.53 | 75.53 | 75.54 | 75.54
[2], 353.15 K | – | – | – | – | – | 75.6 | 75.61 | 75.61 | 75.61 | 75.61
[2], 358.15 K | – | – | – | – | – | 75.68 | 75.69 | 75.69 | 75.69 | 75.69
[2], 363.15 K | – | – | – | – | – | 75.76 | 75.77 | 75.77 | 75.78 | 75.78
[2], 368.15 K | – | – | – | – | – | 75.86 | 75.87 | 75.87 | 75.87 | 75.87
[2], 373.15 K | – | – | – | – | – | 75.96 | 75.97 | 75.97 | 75.97 | 75.98
[2], 378.15 K | – | – | – | – | – | 76.07 | 76.08 | 76.08 | 76.09 | 76.09
[2], 383.15 K | – | – | – | – | – | 76.2 | 76.2 | 76.2 | 76.21 | 76.21
[2], 388.15 K | – | – | – | – | – | 76.33 | 76.34 | 76.33 | 76.34 | 76.34
[2], 393.15 K | – | – | – | – | – | 76.47 | 76.48 | 76.48 | 76.48 | 76.48

N[C@@H](CCC(=O)O)C(=O)O [L-glutamic acid] + O
Conditions | mass density, m1 = 0.00249 [kg/m3] | mass density, m1 = 0.005 [kg/m3] | mass density, m1 = 0.00999 [kg/m3] | mass density, m1 = 0.01497 [kg/m3] | mass density, m1 = 0.02005 [kg/m3] | molar heat capacity at constant pressure, m1 = 0.00249 [J/K/mol] | molar heat capacity at constant pressure, m1 = 0.005 [J/K/mol] | molar heat capacity at constant pressure, m1 = 0.00999 [J/K/mol] | molar heat capacity at constant pressure, m1 = 0.01497 [J/K/mol] | molar heat capacity at constant pressure, m1 = 0.02005 [J/K/mol]
[1], 278.15 K | 1000.19 | 1000.25 | 1001.06 | 1000.93 | 1001.36 | – | – | – | – | –
[1], 283.15 K | 999.98 | 999.98 | 1000.74 | 1000.64 | 1001.07 | – | – | – | – | –
[1], 288.15 K | 999.38 | 999.38 | 1000.11 | 1000.03 | 1000.44 | – | – | – | – | –
[1], 298.15 K | 997.3 | 997.33 | 998.03 | 997.95 | 998.34 | – | – | – | – | –
[1], 308.15 K | 994.32 | 994.31 | 994.97 | 994.92 | 995.33 | – | – | – | – | –
[1], 318.15 K | 990.49 | 990.5 | 991.14 | 991.09 | 991.48 | – | – | – | – | –
[1], 328.15 K | 985.92 | 985.99 | 986.59 | 986.57 | 986.97 | – | – | – | – | –
[1], 338.15 K | 980.82 | 980.87 | 981.45 | 981.46 | 981.84 | – | – | – | – | –
[1], 348.15 K | 975.1 | 975.18 | 975.74 | 975.74 | 976.12 | – | – | – | – | –
[1], 358.15 K | 968.87 | 968.96 | 969.5 | 969.51 | 969.88 | – | – | – | – | –
[1], 368.15 K | 962.18 | 962.24 | 962.76 | 962.76 | 963.12 | – | – | – | – | –
[2], 278.15 K | – | – | – | – | – | 75.67 | 75.7 | 75.73 | 75.73 | 75.74
[2], 283.15 K | – | – | – | – | – | 75.5 | 75.53 | 75.55 | 75.56 | 75.57
[2], 288.15 K | – | – | – | – | – | 75.39 | 75.41 | 75.44 | 75.45 | 75.46
[2], 293.15 K | – | – | – | – | – | 75.32 | 75.34 | 75.36 | 75.38 | 75.38
[2], 298.15 K | – | – | – | – | – | 75.27 | 75.29 | 75.31 | 75.33 | 75.33
[2], 303.15 K | – | – | – | – | – | 75.24 | 75.27 | 75.28 | 75.3 | 75.3
[2], 308.15 K | – | – | – | – | – | 75.23 | 75.25 | 75.27 | 75.29 | 75.29
[2], 313.15 K | – | – | – | – | – | 75.23 | 75.25 | 75.27 | 75.28 | 75.29
[2], 318.15 K | – | – | – | – | – | 75.24 | 75.27 | 75.28 | 75.3 | 75.31
[2], 323.15 K | – | – | – | – | – | 75.27 | 75.29 | 75.3 | 75.32 | 75.33
[2], 328.15 K | – | – | – | – | – | 75.3 | 75.32 | 75.34 | 75.35 | 75.36
[2], 333.15 K | – | – | – | – | – | 75.34 | 75.36 | 75.38 | 75.39 | 75.4
[2], 338.15 K | – | – | – | – | – | 75.39 | 75.41 | 75.43 | 75.44 | 75.45
[2], 343.15 K | – | – | – | – | – | 75.45 | 75.47 | 75.48 | 75.5 | 75.51
[2], 348.15 K | – | – | – | – | – | 75.51 | 75.54 | 75.55 | 75.57 | 75.58
[2], 353.15 K | – | – | – | – | – | 75.58 | 75.61 | 75.62 | 75.64 | 75.65
[2], 358.15 K | – | – | – | – | – | 75.66 | 75.69 | 75.7 | 75.72 | 75.73
[2], 363.15 K | – | – | – | – | – | 75.75 | 75.78 | 75.79 | 75.81 | 75.82
[2], 368.15 K | – | – | – | – | – | 75.85 | 75.87 | 75.88 | 75.91 | 75.91
[2], 373.15 K | – | – | – | – | – | 75.95 | 75.98 | 75.99 | 76.01 | 76.02
[2], 378.15 K | – | – | – | – | – | 76.06 | 76.09 | 76.1 | 76.13 | 76.13
[2], 383.15 K | – | – | – | – | – | 76.18 | 76.21 | 76.22 | 76.25 | 76.25
[2], 388.15 K | – | – | – | – | – | 76.32 | 76.34 | 76.35 | 76.38 | 76.38
[2], 393.15 K | – | – | – | – | – | 76.46 | 76.48 | 76.49 | 76.53 | 76.51
